Source: US4562275A, “Antitumor platinum complexes” (priority 1984, dated 1985)
Values joined by “and” are separate entries in the source; they are usually repeats but may differ in a detail not shown here. Identical values can stand only once.

How the values were obtained:
L1210 leukemia = experiment: Antitumor activity vs transplantable L1210 leukemia (ip) in mice; assay type: in vivo, mouse; conditions: for Max % T/C: dying mice only; for OD (optimum dose): optimum dose from the L1210 test
Source text: The antitumor activities of the complexes provided by the present invention have been determined against L-1210 leukemia in the mouse and, for certain of the complexes, against other mouse tumor systems.
(§1) Results of antitumor testing against the transplantable mouse tumors L1210 leukemia, cisplatin-resistant L1210 leukemia, B16 melanoma, Madison 109 lung carcinoma and colon 26 carcinoma are shown below in Tables 1 and 2.
In Table 1 are shown the maximum % T/C values obtained for each platinum compound versus L1210 leukemia using both single and qd 1→5 dosing.
(§2) The methods used to evaluate the platinum complexes for antitumor activity and toxicity in animals are summarized below. These methods have been published elsewhere in more detail (Rose, et al. Cancer Treat. Rep. 66: 135, 1982; Florczyk, et al, Cancer Treat. Rep. 66: 187, 1982).
(§3) The parent line of L1210 leukemia (L1210) was maintained in DBA/2 mice by ip transplantation of 10^5 cells at weekly intervals. […] B16 malenoma (B16) was maintained by sc transplant in C57BL/6 mice every two weeks. Madison 109 lung carcinoma (M109) and colon 26 carcinoma (C26) were maintained by sc transplant in BALB/c mice every two weeks.
(§4) The level and route of tumor inoculum, host, group size, and drug treatment schedule and route for each tumor type are summarized below in Table 6. Each complex was evaluated initially against L1210 at 4 dose levels per schedule selected on the basis of lethality data provided by the Wadley Institute. In subsequent experiments with the other tumors the complexes were evaluated at a minimum of 3 dose levels selected on the basis of maximum tolerated levels in the L1210 experiments. Cisplatin-treated groups and a saline-treated (or untreated) tumor control group were included in each experiment.
(§5) The L1210 experiments were terminated on Day 30 whereas the B16, C26 and M109 experiments were terminated on Day 60 (some C26 experiments were terminated on Day 75). Mice alive at the termination day were autopsied and considered cured if no tumor was visible. […] A complex was considered active if it produced a % T/C value ≥125.

Solubility (Table 3) = conditions: medium not given
B16 melanoma [1] = experiment: Antitumor activity vs ip B16 melanoma in mice; assay type: in vivo, mouse; parameters: O.D.: unit not given here; conditions: for O.D.: ip B16 (3×; 9×); for Max. % T/C: ip B16 (3×; 9×): q4d × 3 or qd 1-9, ip, dying mice only; for Ratio of Max. % T/C Complex/cDDP: ip B16, relative to concomitant cisplatin
Source text: as §2, §3
The level and route of tumor inoculum, host, group size, and drug treatment schedule and route for each tumor type are summarized below in Table 6. Each complex was evaluated initially against L1210 at 4 dose levels per schedule selected on the basis of lethality data provided by the Wadley Institute.
as §5

M109 carcinoma = experiment: Antitumor activity vs ip M109 (Madison 109 lung) carcinoma in mice; assay type: in vivo, mouse; parameters: O.D.: unit not given here; conditions: for O.D.: ip M109 (2×; 4×); for Max. % T/C: ip M109 (2×; 4×): q3d × 2 or qd 1-4, ip, dying mice only; for Ratio of Max. % T/C Complex/cDDP: ip M109, relative to concomitant cisplatin
Source text: as §1, §2, §3, §4, §5
8 q3d^a × 2 or qd 1-4, ip

C26 carcinoma = experiment: Antitumor activity vs ip C26 (colon 26) carcinoma in mice; assay type: in vivo, mouse; parameters: O.D.: unit not given here; conditions: for Max. % T/C: ip C26 (2×; 4×): q3d × 2 or qd 1-4, ip, dying mice only; for Ratio of Max. % T/C Complex/cDDP: ip C26, relative to concomitant cisplatin
Source text: as §1, §2, §3, §4, §5
8 q3d^b × 2 or qd 1-4, ip

BDF1 mice [2] = experiment: Nephrotoxicity: effect on blood urea nitrogen (BUN) in BDF1 mice; conditions: for BUN↑, Mouse: effect relative to cisplatin
Method: The other compounds were in such short supply that they were tested for effects on BUN values using the optimum dose (O.D.) from the L1210 test for dose selection.
The toxicity studies were done in male BDF1 mice (25-29 gm) and castrated male Fitch ferrets (1-1.5 kg).
The complexes that were active against L1210 were evaluated for nephrotoxicity by determining their effects on blood urea nitrogen (BUN) levels in mice. Groups of 40-50 mice/experiment were bled from the retro-orbital plexus and individual BUN values determined by a modified urease method using a Centrifichem System 400. The test complex, or saline for controls, was given at several dose levels (5-10 mice/dose) in single ip injections. The highest dose of the complex usually corresponded to its LD50 value or 1.5 times its optimal single dose in the L1210 experiment. At least two lower doses were included to evaluate dose-related effects. The BUN values were measured 4 and 7 days after dosing. BUN values ≥30 mg% were considered indicative of drug-induced nephrotoxicity.

BDF1 mice [3] = experiment: Single-dose ip LD50 in BDF1 mice; assay type: in vivo, mouse; conditions: 30 days observation
Method: Single-dose ip LD50 values were determined in BDF1 mice for the indicated complexes.

BDF1 mice [4] = experiment: Deaths (D.14) in the BUN test in BDF1 mice; assay type: in vivo, mouse
[5] = system: L1210/CDDP (cisplatin resistant line of L1210 leukemia); experiment: Antitumor activity vs cisplatin-resistant L1210 leukemia (L1210/CDDP) in mice; assay type: in vivo, mouse
Source text: Results of antitumor testing against the transplantable mouse tumors L1210 leukemia, cisplatin-resistant L1210 leukemia, B16 melanoma, Madison 109 lung carcinoma and colon 26 carcinoma are shown below in Tables 1 and 2. […]
as §2, §3, §4, §5

[6] = Solubility stated in the preparation examples
B16 melanoma [7] = experiment: Antitumor activity vs B16 melanoma, sc tumor implant with iv drug dosing; assay type: in vivo, mouse; conditions: for Max. % T/C: dying mice only
Source text: ^b Sc tumor implant with iv drug dosing.
as §3, §4, §5

[8] = L1210, single dose Day 1, ip, (a), (b) determinations
[9] = L1210, single dose Day 1, ip, dose giving the Max % T/C, same order
[10] = L1210, Day 1, in intralipid plus ethanol

Compound | O.D. (optimal dose) (L1210 leukemia; L1210, QD 1 → 5, ip) [mg/kg/inj] | Max % T/C (L1210 leukemia; L1210, QD 1 → 5, ip) [%] | Max % T/C (L1210 leukemia; [8]) | O.D. (optimal dose) (L1210 leukemia; [9]) | OD (optimum dose) (L1210 leukemia) | O.D. (B16 melanoma [1]) | Max. % T/C (B16 melanoma [1]) [%] | Ratio of Max. % T/C Complex/cDDP (B16 melanoma [1]) | O.D. (M109 carcinoma) | Max. % T/C (M109 carcinoma) | Ratio of Max. % T/C Complex/cDDP (M109 carcinoma) | O.D. (C26 carcinoma; ip C26 (2×; 4×)) | Max. % T/C (C26 carcinoma) [%] | Ratio of Max. % T/C Complex/cDDP (C26 carcinoma) | BUN↑, Mouse (BDF1 mice [2]) | LD50 (BDF1 mice [3]) [mg/kg/ip] | Cures/total ([5]; Day 1) | O.D. (optimal dose) ([5]; Day 1) [mg/kg/inj] | Max % T/C ([5]; Day 1, dying mice only) [%] | Solubility in water [6] | also measured
hydroxymethylphosphonato trans(-)-1,2-diaminocyclohexane platinum(II) [Example 12] | 3 | 293 | 221% and 275% | 24 mg/kg/inj and 21 mg/kg/inj | 24 mg/kg/ip | 4 | 229 | 1.08 | 18 | 135% | .95 | 24 | 125 | .87 | 0 | 79 | 2/6 | 14 | 340 | soluble | Solubility (Solubility (Table 3)): 3 mg/mL; Incidence of BUN > 30 mg % (BDF1 mice [2]; 44 mg/kg ip): 1/6; Incidence of BUN > 30 mg % (BDF1 mice [2]; 59 mg/kg ip): 0/4; Deaths D.14 (BDF1 mice [4]; 44 mg/kg ip): 6/10; Deaths D.14 (BDF1 mice [4]; 59 mg/kg ip): 9/10; Deaths D.14 (BDF1 mice [4]; 79 mg/kg ip): 10/10; Solubility in methanol [6]: soluble
N.N.[Cl][Pt][Cl] [Cisplatin, reference compound] |  |  |  |  | 8 mg/kg/ip |  |  |  |  |  |  |  |  |  |  |  |  |  |  |  | O.D. (B16 melanoma [7]): 6; Max. % T/C (B16 melanoma [7]): 152%; Max. % T/C (B16 melanoma [1]; listed as cDDP): 172% and 186% and 191% and 220% and 185% and 212% and 189%; Max. % T/C (M109 carcinoma; listed as cDDP): 153% and 175% and 155% and 163% and 142%; Cures/total (C26 carcinoma; ip C26 (2×; 4×)): 2/8; Max. % T/C (C26 carcinoma; listed as cDDP): 176% and 163% and 144%; O.D. (C26 carcinoma; ip C26 (2×; 4×), listed as cDDP): 4 and 3 and 2.5; Deaths D.14 (BDF1 mice [4]; 8 mg/kg ip, historical ranges, 20160 min): 0-40%; Deaths D.14 (BDF1 mice [4]; 10.5 mg/kg ip, historical ranges, 20160 min): 0-50%; Deaths D.14 (BDF1 mice [4]; 12 mg/kg ip, historical ranges, 20160 min): 20-100%; Deaths D.14 (BDF1 mice [4]; 14 mg/kg ip, historical ranges): 50-100%
CC(C)CC(C)(N)CN.[O-]B([O-])O.[Pt+2] (centres unmarked) [Example 10, borato 1,2-diamino-2,4-dimethylpentane platinum(II)] | 10 | 236 | 171% and 225% | 20 mg/kg/inj and 24 mg/kg/inj | 10-20 mg/kg/ip | 9 | 174 | .82 | 5 | 74% | .48 | 8 | 100 | .69 | < | 30 | 5/6 | 24 | 307 | soluble | Incidence of BUN > 30 mg % (BDF1 mice [2]; 17 mg/kg ip): 0/10; Incidence of BUN > 30 mg % (BDF1 mice [2]; 22.5 mg/kg ip): 1/10; Incidence of BUN > 30 mg % (BDF1 mice [2]; 30 mg/kg ip): 7/10; Deaths D.14 (BDF1 mice [4]; 17 mg/kg ip): 0/10; Deaths D.14 (BDF1 mice [4]; 22.5 mg/kg ip): 0/10; Deaths D.14 (BDF1 mice [4]; 30 mg/kg ip): 1/10; Solubility in methanol [6]: soluble
phosphonoacetato trans(-)-1,2-diaminocyclohexane platinum(II) [Example 11] | 10 | 207 | 179% and 225% | 20 mg/kg/inj and 24 mg/kg/inj | 20 mg/kg/ip | 9 | 206 | .97 | 10 | 114% | .74 | 8 | 116 | .81 |  | 20 | 2/6 | 24 | 240 | soluble | Incidence of BUN > 30 mg % (BDF1 mice [2]; 20 mg/kg ip): 0/5; Incidence of BUN > 30 mg % (BDF1 mice [2]; 30 mg/kg ip): 0/5; Deaths D.14 (BDF1 mice [4]; 20 mg/kg ip): 0/5; Deaths D.14 (BDF1 mice [4]; 30 mg/kg ip): 0/5; Solubility in alcohol ([6]; alcohol): insoluble
N[C@@H]1CCCC[C@H]1N.O=C([O-])C(F)(F)C(F)(F)C(F)(F)F.O=C([O-])C(F)(F)C(F)(F)C(F)(F)F.[Pt+2] (relative stereo) [Example 3, bis-heptafluorobutyrato trans(-)-1,2-diaminocyclohexane platinum(II)] | 3 | 186 | 157% | 48 mg/kg/inj | 24 mg/kg/ip | 1 | 182 |  | 12 and 8 | 118% and 103% |  | 16 | 119 |  | 0 |  |  |  |  |  | O.D. (optimal dose) (L1210 leukemia; [10]): 24 mg/kg/inj and 18 mg/kg/inj; Max % T/C (L1210 leukemia; [10]): 214% and 200%; Cures/total (L1210 leukemia; L1210, QD 1 → 5, ip): 2/6; O.D. (B16 melanoma [7]): 4; Max. % T/C (B16 melanoma [7]): 164%; Incidence of BUN > 30 mg % (BDF1 mice [2]; 24 mg/kg ip): 0/3; Incidence of BUN > 30 mg % (BDF1 mice [2]; 36 mg/kg ip): 0/2; Deaths D.14 (BDF1 mice [4]; 24 mg/kg ip): 2/5; Deaths D.14 (BDF1 mice [4]; 36 mg/kg ip): 3/5; O.D. (optimal dose) ([5]; Day 1, in intralipid plus ethanol): 12 mg/kg/inj; Max % T/C ([5]; Day 1, in intralipid plus ethanol, dying mice only): 195%
NCC1(N)CCCCCCC1.O=C([O-])CP(=O)([O-])[O-].[H+].[Pt+2] [Example 15, phosphonoacetato 1-aminomethylcyclooctylamine platinum(II)] | 10 | 193 | 236% | 80 mg/kg/inj | 80 mg/kg/ip | 3 | 147 | .77 |  |  |  |  |  |  | < | 137 |  |  |  | very water-soluble | Solubility (Solubility (Table 3)): 7 mg/mL; Incidence of BUN > 30 mg % (BDF1 mice [2]; 77 mg/kg ip): 0/10; Incidence of BUN > 30 mg % (BDF1 mice [2]; 103 mg/kg ip): 2/10; Incidence of BUN > 30 mg % (BDF1 mice [2]; 137 mg/kg ip): 7/10; Deaths D.14 (BDF1 mice [4]; 77 mg/kg ip): 0/10; Deaths D.14 (BDF1 mice [4]; 103 mg/kg ip): 3/10; Deaths D.14 (BDF1 mice [4]; 137 mg/kg ip): 9/10
